The conditions of data set [1]: pig, in vivo.
For data set [2] the following is noted: cited from earlier work.
Data set [3] in a line: Blood concentrations of doxycycline hyclate after deployment of drug delivery formulations in pigs (Example 1). It is filed as in vivo. Conditions: drug/vinylpolysiloxane pills (32% drug loading) deployed in three Yorkshire pigs. Here is the method: The model drug, doxycycline hyclate, is added to the Zhermack Elite Double 22 base and catalyst to obtain a final drug loading percentage of 32%. Each pill has around 30 mg of drug (FIG. 1B). Drug crystals less than 75 μm can be visualized on the surface of the pill using scanning electron microscope (FIG. 1C). A series of pills with 0.5 mm holes inside them can be strung on a retention frame such as nitinol superelastic wire and encased in a Tygon tubing with stainless steel beads and Nusil glue at the ends of the article (FIG. 1D). Other drugs such as moxifloxacin, isoniazid, pyrazinamide, and ethambutol can also be mixed with the Zhermack Elite Double 22 base and catalyst at drug loading percentages greater than 25 wt %. Stability of the drug form can be evaluated using proton nuclear magnetic resonance spectroscopy after extraction of the drug from the matrix in water.
The pills were created by first mixing the drug into the Zhermack Elite Double 22 base and catalyst. […] Drug loading percentages were determined relative to the finally cured silicone mixture weight. […]
After deployment of the drug delivery formulations in three Yorkshire pigs in a large animal model, concentrations of doxycycline hyclate in the blood were measured, and drug release is sustained for at least 7 days with non-zero values (FIG. 3B).

Regarding `CO[C@H]1/C=C/O[C@@]2(C)Oc3c(C)c(O)c4c(O)c(c(/C=N/N5CCN(C)CC5)c(O)c4c3C2=O)NC(=O)/C(C)=C\C=C\[C@H](C)[C@H](O)[C@@H](C)[C@@H](O)[C@@H](C)[C@H](OC(C)=O)[C@@H]1C` [rifampicin], in data set [1], the “duration of detectable serum concentrations” value is listed as “a week”. Besides, in data set [2], the stability in acid entry was “rapidly degrades in acid”.

Take doxycycline hyclate: the “drug release sustained with non-zero concentrations in the blood” value in data set [3] is recorded as “at least 7 days”. Besides, in data set [1], the “duration drug was detectable in serum” value is “at least 28 days”, the “time after which no drug was detectable in serum” value worked out at 3 days and the “time to detectable serum concentrations” value was no more than 15 min.

The record behind these values is patent publication US11576860B2, “Retrieval systems and related methods” (Massachusetts Institute of Technology, priority 2018, dated 2023).
